Here are results for seven compounds from US8609692B2, “TRPV1 antagonists” (AbbVie Inc., priority 2008, dated 2013).

For orientation: IC50 means the concentration needed to halve the response being measured.

The target in series [1] is T1, human TRPV1 receptor (hTRPV1) (Homo sapiens, UniProt Q8NER1).
T1 construct: expressed in transfected cells
Briefly: Capsaicin activation assay (Ca2+ influx, FLIPR). The conditions noted are these: 0.05 μM capsaicin, 1321N1 cells expressing hTRPV1. The format is cell-based.

The nature of series [2]: Rat telemetry protocol (core body temperature). The series is classed as in vivo. The conditions noted are these: core body temperature of rats at one hour post dosing (100 μmol/kg, p.o.), relative to vehicle.
Another series has as its target T2, human TRPV1 (Homo sapiens, UniProt Q8NER1).
T2 construct: expressed in transfected cells; host or cells: HEK293-F cells, transient transfection
Briefly: Acid activation assay - ratiometric calcium imaging of capsaicin- or acid-induced responses. The series is classed as cell-based. The conditions noted are these: Example 30 at 3 μM, HEK293-F cells expressing human TRPV1, FIG. 1; for block of TRPV1-mediated increase in intracellular calcium concentration in response to capsaicin: capsaicin 1 μM; for block of TRPV1-mediated increase in intracellular calcium concentration in response to acid: pH 5.5. As for the experimental part:
The differential effects of TRPV1 antagonists on capsaicin- or acid-induced responses were verified by ratiometric calcium imaging. Transiently transfected HEK293-F cells expressing human TRPV1 were incubated with 5 μM Fura-2AM for 30 minutes at 37° C. Intracellular calcium concentration was measured on an imaging system consisting of the X-Cite™ 120 Fluorescence Illumination System (EXFO) and a Digital Camera (C4742-95, Hamamatsu Photonics) connected to an Olympus 1×71 microscope. Through the control of Slide Book 4.2 software, fluorescence was measured during excitation at 340 and 380 nm; the ratio of the fluorescence at both excitation wavelengths (F340/F380) was monitored. D-PBS, pH 7.4 (Invitrogen, catalog no. 14287) was used as the extracellular solution. Acidic buffer was prepared by titrating D-PBS, pH 7.4 with 7 N HCl to pH 5.5. Agonists and antagonists were prepared in the pH 7.4 or 5.5 solutions. Rapid solution switch was achieved by using a ValveLink system. […] Over the 2100-second time course, the cells were continuously perfused with D-PBS, pH7.4 or challenged sequentially with solutions containing Example 30 (3 μM), Example 30 (3 μM) plus capsaicin (1 μM), Example 30 (3 μM) plus acid (pH 5.5), acid (pH 5.5) alone, or capsaicin (1 μM) alone. The black bars above the traces designate addition and duration of solution applications. Spaces between horizontal bars represent periods in which cells were perfused with D-PBS, pH 7.4.
(Calcium flux is commonly read through the fluorescence of an indicator in the cells.)

T1 sequence (Q8NER1 whole entry): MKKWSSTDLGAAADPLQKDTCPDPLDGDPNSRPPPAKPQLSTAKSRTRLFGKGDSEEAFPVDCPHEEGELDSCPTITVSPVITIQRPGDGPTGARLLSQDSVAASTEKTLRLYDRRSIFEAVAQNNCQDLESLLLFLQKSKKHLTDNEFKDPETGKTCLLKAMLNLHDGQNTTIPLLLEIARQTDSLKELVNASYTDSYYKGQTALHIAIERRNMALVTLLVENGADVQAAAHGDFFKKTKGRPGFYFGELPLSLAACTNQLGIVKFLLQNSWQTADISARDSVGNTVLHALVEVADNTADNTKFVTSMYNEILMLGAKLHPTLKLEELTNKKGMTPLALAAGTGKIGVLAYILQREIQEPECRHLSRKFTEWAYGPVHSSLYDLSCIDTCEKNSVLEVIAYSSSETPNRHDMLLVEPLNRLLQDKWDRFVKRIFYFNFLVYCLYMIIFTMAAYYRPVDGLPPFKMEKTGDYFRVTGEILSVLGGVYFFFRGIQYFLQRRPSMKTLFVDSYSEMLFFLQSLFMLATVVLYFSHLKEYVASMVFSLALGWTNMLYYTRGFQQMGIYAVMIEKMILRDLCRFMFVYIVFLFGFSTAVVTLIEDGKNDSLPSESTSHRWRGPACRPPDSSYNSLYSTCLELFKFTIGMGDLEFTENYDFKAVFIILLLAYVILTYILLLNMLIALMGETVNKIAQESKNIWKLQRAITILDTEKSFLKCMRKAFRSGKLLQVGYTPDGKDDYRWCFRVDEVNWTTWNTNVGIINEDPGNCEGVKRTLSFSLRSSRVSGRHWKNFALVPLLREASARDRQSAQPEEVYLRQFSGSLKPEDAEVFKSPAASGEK
T2 sequence (Q8NER1 whole entry): as above

With `CC1(C)C[C@@H](NC(=O)Nc2cccc3c2C[C@H](O)CC3)c2ccc(F)cc2O1` [Example 30, N-[(4R)-7-fluoro-2,2-dimethyl-3,4-dihydro-2H-chromen-4-yl]-N′-[(7R)-7-hydroxy-5,6,7,8-tetrahydronaphthalen-1-yl]urea], the IC50 in series [1] amounted to 17 nM. In series [2], the “Δ Temp” value turned out to be 1.1 °C. Moreover, on human TRPV1, the “block of TRPV1-mediated increase in intracellular calcium concentration in response to capsaicin” value is recorded as “completely blocked” and the “block of TRPV1-mediated increase in intracellular calcium concentration in response to acid” value was “completely blocked”.
For `CC1(C)C[C@@H](NC(=O)Nc2cccc3c2C[C@@H](O)CC3)c2ccc(F)cc2O1` [Example 31, N-[(4R)-7-fluoro-2,2-dimethyl-3,4-dihydro-2H-chromen-4-yl]-N′-[(7S)-7-hydroxy-5,6,7,8-tetrahydronaphthalen-1-yl]urea], 20 nM corresponded to half-maximal inhibition in series [1] (IC50). The “Δ Temp” value in series [2] came to 1.0 °C. In addition, at human TRPV1, the “block of TRPV1-mediated increase in intracellular calcium concentration in response to capsaicin” value was “completely blocked” and the “block of TRPV1-mediated increase in intracellular calcium concentration in response to acid” value is “completely blocked”.
For `CC1(C)C[C@@H](NC(=O)Nc2cccc3c2C[C@@H](O)CC3)c2ccc(OC(F)(F)F)cc2O1` [Example 116, N-[(4R)-2,2-dimethyl-7-(trifluoromethoxy)-3,4-dihydro-2H-chromen-4-yl]-N′-[(7S)-7-hydroxy-5,6,7,8-tetrahydronaphthalen-1-yl]urea], in series [1], the half-inhibitory concentration (IC50) turned out to be 13 nM. Besides, in series [2], the “Δ Temp” value came to 1.1 °C.
In the same order, the values of `Cc1cc2c(NC(=O)NC3CC(C)(C)Oc4c3ccc(N3CCCCC3)c4F)cccc2cn1` (stereo not drawn) [Example 117, N-(8-fluoro-2,2-dimethyl-7-piperidin-1-yl-3,4-dihydro-2H-chromen-4-yl)-N′-(3-methylisoquinolin-5-yl)urea] are 82 nM and 1.0 °C.
With `Cc1cc2c(NC(=O)N[C@@H]3CC(C)(C)Oc4cc(C(F)(F)F)ccc43)c(F)ccc2cn1` [Example 125, N-[(4R)-2,2-dimethyl-7-(trifluoromethyl)-3,4-dihydro-2H-chromen-4-yl]-N′-(6-fluoro-3-methylisoquinolin-5-yl)urea], in series [1], 35 nM corresponded to half-maximal inhibition (IC50). Further, in series [2], the “Δ Temp” value worked out at 0.5 °C.
In the same order, the values of `Cc1cc2c(NC(=O)N[C@@H]3C[C@@](C)(CF)Oc4cc(C(F)(F)F)ccc43)cccc2cn1` [Example 129, N-[(2S,4R)-2-(fluoromethyl)-2-methyl-7-(trifluoromethyl)-3,4-dihydro-2H-chromen-4-yl]-N′-(3-methylisoquinolin-5-yl)urea] are 15 nM and 0.7 °C.
In the same order, the values of “N-[(4R)-8-tert-butyl-3,4-dihydro-2H-chromen-4-yl]-N-(3-methylisoquinolin-5-yl)urea, hydrochloride salt [Example 100]” are 7 nM and 1.7 °C.
